# Patent US7186544B2, “Agents for promoting fattening of animals and method of promoting fattening” (Fuso Chemical Co., Ltd., priority 1999, dated 2007)
# Columns and labels:
# anaerobic microorganisms = assay: Example 14: number of colonies of anaerobic microorganisms in PYF culture of pig intestinal filtrate; type: cell-based, pigs
# Procedure: (§1) Pigs were acclimated for 1 week, and the contents of their large intestines were taken out. The contents were diluted 5-fold with an anaerobic phosphate buffer (50 mM, pH 6.5), and then filtrated through 4-layered gauze. One mL of the resulting filtrate was inoculated on a PYF medium (100 mL) with 1 w/v % sodium gluconate added thereto, and incubated in an anaerobic condition at 39° C.
# (§2) During incubation, 5 mL of a sterilized 10 w/v % aqueous solution of sodium gluconate were put into the medium at intervals of 48 hours.
# (§3) The culture without sodium gluconate and the culture with sodium gluconate added thereto were sampled on 0, 8, 24, 48, 96 and 144 hours in a germ-free condition, and the samples were diluted to 10^−5. 0.05 mL of each dilution were inoculated on BL agar media (manufactured by Nissui), and anaerobically incubated at 37° C. for 48 hours. The number of colonies of anaerobic microorganisms having grown in agar plates was counted (Table 7).
# Megasphaera elsdenii [1] = assay: Example 14: count of isolated strain in 144-hour culture; type: cell-based
# Procedure: as §1, §2, §3
# (§4) At the same time, according to the properties of the colonies thus grown, strains having grown only on the agar plate inoculated with the 144-hour sample of sodium gluconate-added culture were isolated, and they were counted and identified (Table 8).
# Mitsuokella multiacidus [2] = assay: as above; type: cell-based
# Procedure: as §1, §2, §3, §4
# [3] = system: new born broiler chicks (Chunky); assay: Test Example 3: feeding / drinking water test in broiler chicks, 8 weeks; type: in vivo, chickens; conditions: 0.5% in feed and 0.14% in drinking water vs chicks not having taken sodium gluconate
# Procedure: The feeds of Example 10 and Comparative Example 4 and the drinking water prepared in Example 11 were fed to groups of new born broiler chicks (Chunky), each group being composed of 50 chicks (25 male chicks and 25 female chicks), continuously for 8 weeks. At the start of the feeding test, on two weeks, 4 weeks and 6 weeks after the start of the test, and at the end of the test, that is, five times in all, the chicks were weighed individually, and an increase in the body weight was calculated for every group. In each group, checked was the feed intake during the period between the days on which the body weight was measured, and the feed conversion ratio was calculated from the overall body weight increase and the overall feed intake.
# Megasphaera elsdenii [4] = assay: Example 15: short-chain fatty acid production by isolated strain; type: cell-based
# Procedure: (§5) The strains Megasphaera elsdenii and Mitsuokella multiacidus having grown in Example 14 were anaerobically incubated in PYF media (100 mL) with 1% w/v sodium gluconate added thereto, at 39° C. for 24 hours. The cultures were analyzed on the concentration of the short-chain fatty acids (mM) therein in the same manner as in Example 12.
# Mitsuokella multiacidus [5] = assay: as above; type: cell-based
# Procedure: as §5
# [6] = system: contents of pig large intestines; assay: Example 12: static culture of pig large intestine contents, acids and ammonia; type: cell-based, pigs
# Procedure: Three pigs were acclimated for 1 week, and the contents of their large intestines were taken out. The contents were diluted 5-fold with an anaerobic phosphate buffer (50 mM, pH 6.5), and then filtrated through 4-layered gauze. 25 mL of the resulting filtrate was put into serum bottles of 120 mL volume, and the gas phase therein was purged with a mixed gas of nitrogen/carbon dioxide (80/20). The bottles were sealed with butyl rubber stoppers and aluminum seals, and left for static culture at 39° C. for 24 hours (n=3).
# Prior to putting the intestinal filtrate into the serum bottles, 1 w/v % glucose (positive control) and 1 w/v % sodium gluconate were put in the bottles, except for an additive-free control (negative control).
# After the intestinal filtrate was thus cultivated, 1 mL of 6 N hydrochloric acid was added thereto to stop fermentation. The resulting cultures were analyzed as follows:
# The cultures were pre-treated according to the Ushida and Sakata's conditions (Anim. Sci. Technol., 69, 571–575, […]), and then were analyzed on the concentration of short-chain fatty acids, succinic acid and lactic acid therein by HPLC and the concentration of ammonia therein by the indophenol method (Weatherburn, Analytic Chem., 39, 971–974, 1967). Subtracting the concentration before cultivation from that after cultivation gives the amount (mM) generated through fermentation.
# [7] = system: contents of pig large intestines; assay: Example 13: fermentation gas generated in culture of pig large intestine contents; type: cell-based, pigs
# Procedure: The amount of fermentation gas generated in the cultivation of Example 12 was measured by putting a glass syringe equipped with an injection needle into a head space of the serum bottle, sucking the gas until normal pressure is reached and measuring the sucked gas by a syringe scale.
# The composition of the gas was analyzed for carbon dioxide, methane, hydrogen and hydrogen sulfide by TCD and FPD gas chromatography (Ushida, et al.; Jpn. J. Zootech. Sci., 53, 412–416, 1982, and Anim. Sci. Technol., 69, 571–575, 1998).
# piglets = assay: Test Example 4: feeding test in piglets, 8 weeks, sodium gluconate dose series; type: in vivo, pigs; conditions: for Body Weight Increase ± S.D. / Feed Conversion Ratio ± S.D.: piglets about 20 kg, 8 weeks; for Body Weight Increase (index %) / Feed Conversion Ratio (index %): control with no additive = 100
# Excerpt: To a feed for latter artificial milk suckling-stage piglets (manufactured by Nippon Kagaku Shiryo Kyokai) and to a feed for raising piglets (manufactured by Nippon Kagaku Shiryo Kyokai), added were 0.05, 0.1, 0.25, 0.5 and 1.0%, relative to the weight of the feeds, of sodium gluconate.
# The above-mentioned feeds were fed to groups of piglets (body weight: about 20 kg), each group being composed of 4 piglets (2 male piglets and 2 female piglets), continuously for 8 weeks (the feed for latter artificial milk for the former 2 weeks and the feed for raising piglets for the latter 6 weeks). During the period of the feeding test, each of the piglets was weighed every week, and an increase in the body weight was calculated for every group. In each group, checked was the feed intake during the period between the days on which the body weight was measured, and the feed conversion ratio was calculated.
# This test was repeated 10 times for the group not having taken sodium gluconate and the group having taken 0.5% sodium gluconate, but 5 times for the other groups having taken sodium gluconate in different concentrations. The obtained body weight increases and the feed conversion ratios were averaged for every group.
# [8] = 144-hour sample of sodium gluconate-added culture
# [9] = PYF medium with 1% w/v sodium gluconate, 39° C., 24 hours
# [10] = sodium gluconate added minus control with no additive
# [11] = after cultivation, 1 w/v % additive, 39° C., 24 hours, n=3
# [12] = index based on the data before cultivation of 100
# [13] = cultivation of Example 12, 1 w/v % additive, n=3
# [14] = 0.05% added to feed, 5 test cycles
# [15] = 0.1% added to feed, 5 test cycles
# [16] = 0.25% added to feed, 5 test cycles
# [17] = 0.5% added to feed, 10 test cycles
# [18] = 1.0% added to feed, 5 test cycles
structure (smiles),measurement,setting,value
"O=C([O-])[C@H](O)[C@@H](O)[C@H](O)[C@H](O)CO.[Na+] [Sodium Gluconate, sodium gluconate]",number of anaerobic microorganisms,"anaerobic microorganisms; 0 hrs after start of incubation, 1 w/v % in PYF medium, 39° C.",<6.3 logarithmic number of the cells in 1 g of culture
same,number of anaerobic microorganisms,anaerobic microorganisms; 8 hrs after start of incubation,8.9 logarithmic number of the cells in 1 g of culture
same,number of anaerobic microorganisms,anaerobic microorganisms; 24 hrs after start of incubation,10.7 logarithmic number of the cells in 1 g of culture
same,number of anaerobic microorganisms,anaerobic microorganisms; 48 hrs after start of incubation,8.7 logarithmic number of the cells in 1 g of culture
same,number of anaerobic microorganisms,anaerobic microorganisms; 96 hrs after start of incubation,10.4 logarithmic number of the cells in 1 g of culture
same,number of anaerobic microorganisms,anaerobic microorganisms; 144 hrs after start of incubation,7.7 logarithmic number of the cells in 1 g of culture
same,total number of anaerobic microorganisms,anaerobic microorganisms; in words,increased
same,number of Megasphaera elsdenii,Megasphaera elsdenii [1]; [8],6.4 logarithmic number of the cells in 1 g of culture
same,Megasphaera elsdenii number,Megasphaera elsdenii [1]; in words,observed to increase
same,number of Mitsuokella multiacidus,Mitsuokella multiacidus [2]; [8],7.2 logarithmic number of the cells in 1 g of culture
same,Mitsuokella multiacidus number,Mitsuokella multiacidus [2]; in words,observed to increase
same,feed efficiency improved by,[3],6%
same,Acetic Acid,Megasphaera elsdenii [4]; [9],8.7 mM
same,Butyric Acid,Megasphaera elsdenii [4]; [9],4.9 mM
same,Propionic Acid,Megasphaera elsdenii [4]; [9],0.8 mM
same,short-chain fatty acids produced by Megasphaera elsdenii utilizing sodium gluconate,Megasphaera elsdenii [4]; in words,produced a lot of acetic acid and butyric acid
same,"Acetic Acid, Difference",Megasphaera elsdenii [4]; [10],2.9 mM
same,"Butyric Acid, Difference",Megasphaera elsdenii [4]; [10],3.5 mM
same,"Propionic Acid, Difference",Megasphaera elsdenii [4]; [10],-0.8 mM
same,Acetic Acid,Mitsuokella multiacidus [5]; [9],9.9 mM
same,Butyric Acid,Mitsuokella multiacidus [5]; [9],1.0 mM
same,Propionic Acid,Mitsuokella multiacidus [5]; [9],43.1 mM
same,short-chain fatty acids produced by Mitsuokella multiacidus utilizing sodium gluconate,Mitsuokella multiacidus [5]; in words,produced a lot of acetic acid and propionic acid
same,"Acetic Acid, Difference",Mitsuokella multiacidus [5]; [10],7.0 mM
same,"Butyric Acid, Difference",Mitsuokella multiacidus [5]; [10],0.7 mM
same,"Propionic Acid, Difference",Mitsuokella multiacidus [5]; [10],36.1 mM
same,Acetic Acid,[6]; [11],161.90 mM
same,Ammonia,[6]; [11],5.79 mM
same,Butyric Acid,[6]; [11],70.36 mM
same,Lactic Acid,[6]; [11],0 mM
same,Propionic Acid,[6]; [11],103.25 mM
same,Succinic Acid,[6]; [11],0 mM
same,"lactic acid, succinic acid and ammonia in the cultures",[6]; in words,greatly reduce
same,"concentration of acetic acid, propionic acid and butyric acid in the cultures","[6]; in words, compared with cultures without sodium gluconate",greatly increased
same,Acetic Acid (index),[6]; [12],(404)
same,Ammonia (index),[6]; [12],(74)
same,Butyric Acid (index),[6]; [12],(1305)
same,Lactic Acid (index),[6]; [12],(0)
same,Propionic Acid (index),[6]; [12],(941)
same,Succinic Acid (index),[6]; [12],(0)
same,Carbon Dioxide,[7]; [13],4330 µL/g
same,Hydrogen,[7]; [13],211.99 µL/g
same,Hydrogen Sulfide,[7]; [13],0.09 µL/g
same,Methane,[7]; [13],30 µL/g
same,Total Gas,[7]; [13],6880 µL/g
same,hydrogen sulfide in the cultures,"[7]; in words, compared with cultures with no additives",greatly reduced
same,Body Weight Increase ± S.D.,piglets; [14],39.96 ± 5.83 kg
same,Feed Conversion Ratio ± S.D.,piglets; [14],2.62 ± 0.15
same,Body Weight Increase (index %),piglets; 0.05% added to feed,(104) %
same,Feed Conversion Ratio (index %),piglets; 0.05% added to feed,(97) %
same,Body Weight Increase ± S.D.,piglets; [15],40.92 ± 4.49 kg
same,Feed Conversion Ratio ± S.D.,piglets; [15],2.58 ± 0.11
same,Body Weight Increase (index %),piglets; 0.1% added to feed,(106) %
same,Feed Conversion Ratio (index %),piglets; 0.1% added to feed,(96) %
same,Body Weight Increase ± S.D.,piglets; [16],41.26 ± 3.44 kg
same,Feed Conversion Ratio ± S.D.,piglets; [16],2.55 ± 0.17
same,Body Weight Increase (index %),piglets; 0.25% added to feed,(107) %
same,Feed Conversion Ratio (index %),piglets; 0.25% added to feed,(94) %
same,Body Weight Increase ± S.D.,piglets; [17],40.43 ± 4.40 kg
same,Feed Conversion Ratio ± S.D.,piglets; [17],2.63 ± 0.12
same,Body Weight Increase (index %),piglets; 0.5% added to feed,(105) %
same,Feed Conversion Ratio (index %),piglets; 0.5% added to feed,(97) %
same,Body Weight Increase ± S.D.,piglets; [18],39.28 ± 2.58 kg
same,Feed Conversion Ratio ± S.D.,piglets; [18],2.74 ± 0.05
same,Body Weight Increase (index %),piglets; 1.0% added to feed,(102) %
same,Feed Conversion Ratio (index %),piglets; 1.0% added to feed,(101) %
